Measurements taken from patent US9242993B2, “Morpholino substituted bicyclic pyrimidine urea or carbamate derivatives as mTOR inhibitors” (CELLZOME LIMITED, priority 2011, dated 2016).

Key:
[1] = molecular target: DNA-dependent protein kinase (DNA-PK) (Homo sapiens, UniProt P78527); assay: biochemical
[2] = system: S6RP serine-240/244 phosphorylation; assay: In vitro phospho-S6 cellular assay; type: cell-based; details: Homo sapiens; HEK293T/17 cells, 2 hours; read-out: pS6 inhibition value (IC50), activity level
Source text: Activation of mTOR signaling results in phosphorylation of several downstream targets. In cells, mTOR exists in two different protein complexes. The mTOR Complex-1 (mTORC1) phosphorylates and activates S6 Kinase 1 (S6K1) and S6 Kinase 2 (S6K2) (also known as p70S6K) which then phosphorylate S6 Ribosomal Protein (S6RP) (also known as RPS6)3. S6RP is phosphorylated on serine 235, serine 236, serine 240 and serine 244 by both pS6K1 and pS6K2. The mTOR Complex-2 (mTORC2) phosphorylates AKT on serine 473 which activates the AKT signaling pathway.
The assay measures a test compound's inhibition of S6RP serine-240/244 phosphorylation and inhibition of Akt serine-473 phosphorylation in human embryonic kidney derived HEK293T/17 cells (ATCC CRL-11268).
The HEK293T/17 cell line is maintained in DMEM media (Invitrogen catalogue number 41965-039) supplemented with 10% FCS at 37° C. in a 5% CO2 humidified incubator.
Cells are seeded in 96-well plates at 40,000 cells/well (pS6RP S240/244 assay) or 80,000 cells/well (pAkt S473 assay) in 90 μl growth media (DMEM, 2% FCS). Plates are incubated for 1 hour in a humidified incubator to allow the cells to adhere. Cells are treated with 8 concentrations of test compounds or DMSO alone for controls (final DMSO concentration 0.1%) and incubated at 37° C. for 2 hours. Then 20 μl of 5× concentrated lysis buffer (750 mM NaCl, 100 mM Tris pH7.4, 5 mM ADTA, 5 mM EGTA, 5% Triton X-100) is added, plates are sealed and incubated for 15 minutes at 4° C. with gentle shaking. After cell lysis, 25 μl cell lysate is transferred to a MesoScale plate coated with an antibody to pS6RP Ser240/244 (MesoScale Discovery K150DGD-3) or an antibody to pAkt Ser 473 (MesoScale Discovery K151DGD-3). Plates have been blocked before by incubation with 150 μl MesoScale Discovery Blocking Solution-A for 1 hour at room temperature followed by washing with 150 μl 1× Tris wash buffer per well. After the transfer of the cell lysate to the MSD plate, the pS6RP (or pAkt) protein is captured on the coated antibody by incubation at room temperature for 1 hour with gentle shaking. After the capture step the plate is washed three times with 150 μl of 1× Tris wash buffer per well. Then 25 μl detection antibody conjugated with a Sulfo-Tag is added and incubated for 1 hour at room temperature with gentle shaking. Subsequently the antibody solution is removed and the plate is washed 3 times with 150 μl 1× Tris wash buffer per well and 150 μl Read buffer is added. The plates are analysed on a MSD 2400 Plate Reader (MesoScale Discovery). Data analysis is performed using nonlinear regression for a sigmoidal dose-response with a variable slope.

[3] = system: IFNγ release in whole blood; assay: In vitro human whole blood assay (IFNγ release); type: cell-based; details: αCD3/αCD28 and IL-2 stimulation, 18 hours, read-out: WB inhibition value (pIC50) (converted)
Method: This assay measures IFNγ release in whole blood after αCD3/αCD28 and IL-2 treatment. The whole blood contains circulating T lymphocytes; αCD3/αCD28 stimulation mimics antigen receptor signalling, resulting in epigenetic changes to the IFNG gene locus, such that when IL-2 is added, IFNγ is produced.
Human whole blood, with Na-heparin as the anticoagulant, is obtained from Clinical Trials Laboratory Services. Blood is diluted 1.4 times with RPMI 1640 (Lonza, BE12-167F) and 175 μl/well is distributed in a low evaporation 96-well plates (Falcon, BD Labware, 353072). Blood is treated with 10 concentrations of test compounds or DMSO alone for controls (final DMSO concentration 0.2%) and incubated at 37° C. for 1 hour. Blood is then stimulated with 1 μg/ml αCD3 (R&D Systems, MAB100), 1 μg/ml αCD28 (BD Pharmingen, 555725) and IL-2 at 10 ng/ml (Peprotech, 200-02). Blood is then left to incubate at 37° C. for 18 hours. After, plates are spun at 250 g for 5 minutes to pellet blood cells and 25 μl of plasma is transferred to a MesoScale plate coated with an antibody to IFNγ (MesoScale Discovery K151AEC-2) containing 25 μl/well MesoScale Discovery Blocking Solution-2. Plates have been blocked by incubating with 25 μl/well MesoScale Discovery Blocking Solution-2 for 30 minutes at room temperature. After the transfer of sera to the MSD plate, the IFNγ protein is captured on the coated antibody by incubation at room temperature for 2 hour with gentle shaking. After the capture step the plate is washed three times with 150 μl/well of 1×PBS-Tween wash buffer and 25 μl/well detection antibody conjugated with a Sulfo-Tag is added and incubated for 2 hours at room temperature with gentle shaking. Subsequently the antibody solution is removed and the plate is washed 3 times with 150 μl/well 1×PBS-Tween wash buffer and 150 μl/well MesoScale Discovery Read buffer is added. The plates are analysed on a MSD 2400 Plate Reader (MesoScale Discovery). Data analysis is performed using nonlinear regression for a sigmoidal dose-response with a variable slope.

[4] = molecular target: mTOR (Homo sapiens, UniProt P42345); assay: biochemical

Chain of DNA-dependent protein kinase (DNA-PK) (P78527 whole entry): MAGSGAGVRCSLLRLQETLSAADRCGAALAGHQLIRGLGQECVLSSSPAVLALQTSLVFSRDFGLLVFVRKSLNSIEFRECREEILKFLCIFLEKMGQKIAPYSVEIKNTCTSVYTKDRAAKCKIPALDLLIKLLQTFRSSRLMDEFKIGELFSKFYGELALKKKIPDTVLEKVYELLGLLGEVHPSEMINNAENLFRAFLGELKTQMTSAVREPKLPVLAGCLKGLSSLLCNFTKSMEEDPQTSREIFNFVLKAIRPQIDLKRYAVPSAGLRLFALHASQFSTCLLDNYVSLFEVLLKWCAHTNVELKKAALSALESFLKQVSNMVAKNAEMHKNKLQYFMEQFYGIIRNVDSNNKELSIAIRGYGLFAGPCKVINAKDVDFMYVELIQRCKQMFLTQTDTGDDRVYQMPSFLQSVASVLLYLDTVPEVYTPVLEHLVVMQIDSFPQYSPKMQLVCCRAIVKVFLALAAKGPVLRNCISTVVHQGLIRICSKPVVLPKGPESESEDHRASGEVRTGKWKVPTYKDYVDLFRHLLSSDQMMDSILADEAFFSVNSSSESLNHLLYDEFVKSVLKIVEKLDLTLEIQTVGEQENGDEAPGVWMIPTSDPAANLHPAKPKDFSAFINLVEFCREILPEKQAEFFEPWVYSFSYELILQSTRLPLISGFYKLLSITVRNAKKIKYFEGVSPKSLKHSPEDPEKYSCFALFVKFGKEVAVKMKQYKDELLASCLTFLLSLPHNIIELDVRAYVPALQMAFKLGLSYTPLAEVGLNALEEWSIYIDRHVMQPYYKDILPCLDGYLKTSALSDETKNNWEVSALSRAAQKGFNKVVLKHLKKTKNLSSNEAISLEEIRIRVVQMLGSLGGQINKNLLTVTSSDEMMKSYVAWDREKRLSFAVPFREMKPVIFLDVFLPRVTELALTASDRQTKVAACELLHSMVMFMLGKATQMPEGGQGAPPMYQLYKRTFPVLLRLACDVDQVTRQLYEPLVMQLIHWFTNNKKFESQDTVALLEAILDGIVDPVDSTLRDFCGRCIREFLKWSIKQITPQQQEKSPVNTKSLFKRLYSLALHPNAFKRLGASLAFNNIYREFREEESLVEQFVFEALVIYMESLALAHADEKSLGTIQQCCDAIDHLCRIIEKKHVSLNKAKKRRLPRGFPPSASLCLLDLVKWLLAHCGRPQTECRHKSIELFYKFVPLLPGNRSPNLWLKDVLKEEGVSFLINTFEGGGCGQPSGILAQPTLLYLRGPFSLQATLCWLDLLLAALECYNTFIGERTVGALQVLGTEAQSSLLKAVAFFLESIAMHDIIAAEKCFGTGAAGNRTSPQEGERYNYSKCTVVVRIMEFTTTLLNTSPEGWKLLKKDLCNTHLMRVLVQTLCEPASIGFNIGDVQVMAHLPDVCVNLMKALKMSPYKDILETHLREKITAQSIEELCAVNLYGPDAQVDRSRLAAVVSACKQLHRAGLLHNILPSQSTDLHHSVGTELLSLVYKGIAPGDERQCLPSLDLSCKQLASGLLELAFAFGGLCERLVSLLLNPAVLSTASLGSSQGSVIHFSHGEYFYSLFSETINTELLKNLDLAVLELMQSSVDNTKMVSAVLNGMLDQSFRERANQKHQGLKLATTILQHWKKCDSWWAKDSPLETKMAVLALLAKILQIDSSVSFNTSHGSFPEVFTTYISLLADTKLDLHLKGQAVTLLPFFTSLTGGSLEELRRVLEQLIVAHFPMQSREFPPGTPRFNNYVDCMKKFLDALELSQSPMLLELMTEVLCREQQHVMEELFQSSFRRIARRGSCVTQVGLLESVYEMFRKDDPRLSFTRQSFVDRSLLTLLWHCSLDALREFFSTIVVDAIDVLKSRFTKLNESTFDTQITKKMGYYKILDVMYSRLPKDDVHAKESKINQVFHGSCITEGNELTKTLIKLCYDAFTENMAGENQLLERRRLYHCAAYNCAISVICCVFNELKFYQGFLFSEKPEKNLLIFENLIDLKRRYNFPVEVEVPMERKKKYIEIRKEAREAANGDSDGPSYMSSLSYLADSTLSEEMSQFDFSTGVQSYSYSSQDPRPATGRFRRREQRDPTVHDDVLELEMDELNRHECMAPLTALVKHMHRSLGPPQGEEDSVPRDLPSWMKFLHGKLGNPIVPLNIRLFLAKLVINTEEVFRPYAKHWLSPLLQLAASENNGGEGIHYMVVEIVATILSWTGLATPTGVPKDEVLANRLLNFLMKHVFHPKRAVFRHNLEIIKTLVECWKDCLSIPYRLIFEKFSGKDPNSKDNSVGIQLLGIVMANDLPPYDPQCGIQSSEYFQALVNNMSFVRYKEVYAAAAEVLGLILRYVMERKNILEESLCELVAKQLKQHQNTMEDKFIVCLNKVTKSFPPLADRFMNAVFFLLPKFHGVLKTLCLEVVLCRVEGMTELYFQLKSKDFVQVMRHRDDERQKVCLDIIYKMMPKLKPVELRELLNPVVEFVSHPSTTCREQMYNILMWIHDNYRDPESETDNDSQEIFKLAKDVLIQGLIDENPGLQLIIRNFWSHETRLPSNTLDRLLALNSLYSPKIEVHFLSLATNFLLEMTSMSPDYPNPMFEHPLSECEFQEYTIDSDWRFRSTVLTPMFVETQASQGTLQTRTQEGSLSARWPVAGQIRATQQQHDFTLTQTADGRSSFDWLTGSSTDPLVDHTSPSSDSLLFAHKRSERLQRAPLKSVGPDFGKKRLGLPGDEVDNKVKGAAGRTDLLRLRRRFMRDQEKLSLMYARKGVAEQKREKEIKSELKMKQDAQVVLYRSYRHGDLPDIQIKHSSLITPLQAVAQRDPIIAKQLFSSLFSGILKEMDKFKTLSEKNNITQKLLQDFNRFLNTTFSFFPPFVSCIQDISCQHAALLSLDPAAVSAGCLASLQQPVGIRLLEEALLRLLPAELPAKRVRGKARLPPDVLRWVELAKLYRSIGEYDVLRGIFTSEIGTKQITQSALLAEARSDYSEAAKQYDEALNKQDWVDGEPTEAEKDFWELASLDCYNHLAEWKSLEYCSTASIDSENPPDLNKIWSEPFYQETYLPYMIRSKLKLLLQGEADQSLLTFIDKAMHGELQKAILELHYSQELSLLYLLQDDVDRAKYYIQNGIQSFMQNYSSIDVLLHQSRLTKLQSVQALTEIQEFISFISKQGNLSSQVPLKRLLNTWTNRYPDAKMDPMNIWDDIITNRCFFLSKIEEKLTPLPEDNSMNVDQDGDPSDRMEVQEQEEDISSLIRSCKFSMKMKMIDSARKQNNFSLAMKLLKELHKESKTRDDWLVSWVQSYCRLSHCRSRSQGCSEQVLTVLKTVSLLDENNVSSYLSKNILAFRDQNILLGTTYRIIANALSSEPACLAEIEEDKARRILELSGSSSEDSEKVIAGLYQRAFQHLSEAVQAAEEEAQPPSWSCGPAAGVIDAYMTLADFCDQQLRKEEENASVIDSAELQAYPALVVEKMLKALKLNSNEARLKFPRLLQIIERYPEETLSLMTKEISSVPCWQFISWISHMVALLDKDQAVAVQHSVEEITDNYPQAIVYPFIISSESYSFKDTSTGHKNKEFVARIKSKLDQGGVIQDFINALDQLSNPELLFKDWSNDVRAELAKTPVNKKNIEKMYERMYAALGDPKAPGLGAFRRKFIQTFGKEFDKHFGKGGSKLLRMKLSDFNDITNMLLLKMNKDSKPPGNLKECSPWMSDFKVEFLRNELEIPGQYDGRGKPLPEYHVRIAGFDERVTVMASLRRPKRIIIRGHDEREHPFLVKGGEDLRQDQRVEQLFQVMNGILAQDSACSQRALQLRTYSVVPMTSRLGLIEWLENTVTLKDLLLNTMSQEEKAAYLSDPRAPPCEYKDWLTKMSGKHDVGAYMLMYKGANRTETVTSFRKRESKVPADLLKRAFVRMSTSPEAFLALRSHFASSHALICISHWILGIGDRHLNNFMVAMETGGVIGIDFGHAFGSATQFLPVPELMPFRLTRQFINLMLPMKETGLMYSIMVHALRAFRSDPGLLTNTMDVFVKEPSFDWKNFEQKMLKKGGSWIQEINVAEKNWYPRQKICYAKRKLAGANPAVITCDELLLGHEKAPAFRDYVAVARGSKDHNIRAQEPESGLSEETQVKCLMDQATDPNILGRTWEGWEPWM

IC50 [1] [nM] | IC50 [2] [nM] | IC50 [3] [nM] | IC50 [4] [nM] | SMILES
> 10000 | < 100 | 31.6 | < 100 | CCNC(=O)Nc1ccc(-c2nc3c(c(N4CCOC[C@@H]4CC)n2)[C@@H](C)S(=O)(=O)C3)cc1 [Example 52, 1-ethyl-3-(4-((R)-4-((S)-3-ethylmorpholino)-5-methyl-6,6-dioxido-5,7-dihydrothieno[3,4-d]pyrimidin-2-yl)phenyl)urea]
 | < 100 | 251 | 100 to 1000 | C[C@@H]1COCCN1c1nc(-c2ccc(NC(=O)NC3CC3)cc2)nc2c1[C@H](C)S(=O)(=O)C2 [Example 63, 1-cyclopropyl-3-(4-((S)-5-methyl-4-((R)-3-methylmorpholino)-6,6-dioxido-5,7-dihydrothieno[3,4-d]pyrimidin-2-yl)phenyl)urea]
 | < 100 | 39.8 | < 100 | CC1c2nc(-c3ccc(NC(=O)NC4CC4)cc3)nc(N3CCOC[C@@H]3C)c2C(C)S1(=O)=O (stereo partly drawn) [Example 44, 1-cyclopropyl-3-(4-(5,7-dimethyl-4-((S)-3-methylmorpholino)-6,6-dioxido-5,7-dihydrothieno[3,4-d]pyrimidin-2-yl)phenyl)urea]
 | < 100 | 200 | < 100 | CCC1c2c(nc(-c3ccc(NC(=O)NC4CC4)cc3)nc2N2CCOC[C@@H]2C)CS1(=O)=O (stereo partly drawn) [Example 49, 1-cyclopropyl-3-(4-(5-ethyl-4-((S)-3-methylmorpholino)-6,6-dioxido-5,7-dihydrothieno[3,4-d]pyrimidin-2-yl)phenyl)urea]
 | < 100 | 2000 | < 100 | CC1c2c(nc(-c3ccc(NC(=O)NCC4CC4)cc3)nc2N2CCOC[C@@H]2C)CS1(=O)=O (stereo partly drawn) [Example 46, 1-(cyclopropylmethyl)-3-(4-(5-methyl-4-((S)-3-methylmorpholino)-6,6-dioxido-5,7-dihydrothieno[3,4-d]pyrimidin-2-yl)phenyl)urea]
 | < 100 | 79.4 | < 100 | CC1c2c(nc(-c3ccc(NC(=O)NC4CC4)cc3)nc2N2CCOC[C@H]2C)CS1(=O)=O (stereo partly drawn) [Example 48, 1-cyclopropyl-3-(4-(5-methyl-4-((R)-3-methylmorpholino)-6,6-dioxido-5,7-dihydrothieno[3,4-d]pyrimidin-2-yl)phenyl)urea]
 | < 100 | 200 | < 100 | CNC(=O)Nc1ccc(-c2nc(N3CCOC[C@@H]3C)c3c(n2)C(C)(C)S(=O)(=O)C3C)cc1 (stereo partly drawn) [Example 77, 1-methyl-3-(4-(5,7,7-trimethyl-4-((S)-3-methylmorpholino)-6,6-dioxido-5,7-dihydrothieno[3,4-d]pyrimidin-2-yl)phenyl)urea]
 | < 100 | 100 | < 100 | CCNC(=O)Nc1ccc(-c2nc3c(c(N4CCOC[C@@H]4C)n2)[C@@H](C)S(=O)(=O)C3)cc1 [Example 39, 1-ethyl-3-(4-((R)-5-methyl-4-((S)-3-methylmorpholino)-6,6-dioxido-5,7-dihydrothieno[3,4-d]pyrimidin-2-yl)phenyl)urea]
 | < 100 | 158 | < 100 | CCNC(=O)Nc1ccc(-c2nc3c(c(N4CCOC[C@@H]4C)n2)C(C)S(=O)(=O)C3)cc1 (stereo partly drawn) [Example 38, 1-ethyl-3-(4-(5-methyl-4-((S)-3-methylmorpholino)-6,6-dioxido-5,7-dihydrothieno[3,4-d]pyrimidin-2-yl)phenyl)urea]

The next lines start with the compound.

SMILES | IC50 [1] [nM] | IC50 [2] [nM] | IC50 [3] [nM] | IC50 [4] [nM]
CNC(=O)Nc1ccc(-c2nc(N3CCOC[C@@H]3C)c3c(n2)C(C)(C)S(=O)(=O)C3)cc1 [Example 57, (S)-1-(4-(7,7-dimethyl-4-(3-methylmorpholino)-6,6-dioxido-5,7-dihydrothieno[3,4-d]pyrimidin-2-yl)phenyl)-3-methylurea] | > 10000 |  | 251 | < 100
CC[C@H]1COCCN1c1nc(-c2ccc(NC(=O)NC3CC3)cc2)nc2c1CS(=O)(=O)C2(C)C [Example 51, (S)-1-cyclopropyl-3-(4-(4-(3-ethylmorpholino)-7,7-dimethyl-6,6-dioxido-5,7-dihydrothieno[3,4-d]pyrimidin-2-yl)phenyl)urea] | > 10000 | < 100 | 158 | < 100
CC[C@H]1COCCN1c1nc(-c2ccc(NC(=O)NC)cc2)nc2c1C(C)S(=O)(=O)C2(C)C (stereo partly drawn) [Example 80, 1-(4-(4-((S)-3-ethylmorpholino)-5,7,7-trimethyl-6,6-dioxido-5,7-dihydrothieno[3,4-d]pyrimidin-2-yl)phenyl)-3-methylurea] |  | < 100 | 100 | < 100
CCNC(=O)Nc1ccc(-c2nc(N3CCOC[C@H]3C)c3c(n2)C(C)(C)S(=O)(=O)C3)cc1 [Example 55, (R)-1-(4-(7,7-dimethyl-4-(3-methylmorpholino)-6,6-dioxido-5,7-dihydrothieno[3,4-d]pyrimidin-2-yl)phenyl)-3-ethylurea] | > 10000 | < 100 | 100 | 
CC[C@H]1COCCN1c1nc(-c2ccc(NC(=O)NC)cc2F)nc2c1C(C)S(=O)(=O)C2(C)C (stereo partly drawn) [Example 79, 1-(4-(4-((S)-3-ethylmorpholino)-5,7,7-trimethyl-6,6-dioxido-5,7-dihydrothieno[3,4-d]pyrimidin-2-yl)-3-fluorophenyl)-3-methylurea] |  | < 100 | 631 | < 100
CCNC(=O)Nc1ccc(-c2nc(N3CCOC[C@@H]3CC)c3c(n2)C(C)(C)S(=O)(=O)C3)cc1 [Example 56, (S)-1-ethyl-3-(4-(4-(3-ethylmorpholino)-7,7-dimethyl-6,6-dioxido-5,7-dihydrothieno[3,4-d]pyrimidin-2-yl)phenyl)urea] | > 10000 |  | 316 | < 100
C[C@@H]1COCCN1c1nc(-c2ccc(NC(=O)NC3CC3)cc2)nc2c1CS(=O)(=O)C2(C)C [Example 54, (R)-1-cyclopropyl-3-(4-(7,7-dimethyl-4-(3-methylmorpholino)-6,6-dioxido-5,7-dihydrothieno[3,4-d]pyrimidin-2-yl)phenyl)urea] |  | < 100 | 200 | < 100
CCNC(=O)Nc1ccc(-c2nc(N3CCOCC3)c3c(n2)C(C)(C)S(=O)(=O)C3)cc1 [Example 76, 1-(4-(7,7-dimethyl-4-morpholino-6,6-dioxido-5,7-dihydrothieno[3,4-d]pyrimidin-2-yl)phenyl)-3-ethylurea] |  | < 100 | 631 | < 100
